Experimental data from paper PMC10297291 (2023).

What was measured:
[1] = test system: G4 (DNA, G4) AGGGTTAGGGTTAGGGTTAGGG; assay: thiazole orange displacement (G4-FID), fluorescence; conditions: 10 mM K+, 90 mM Li+, 10 mM lithium cacodylate pH 7.2, 1 µM TO displaced, 0.25 µM DNA, 3 min equilibration
[2] = test system: ds26 (DNA, duplex) CAATCGGATCGAATTCGATCCGATTG; assay: as above; conditions: 10 mM K+, 90 mM Li+, 10 mM lithium cacodylate pH 7.2, 1 µM TO displaced, 0.25 µM DNA, 3 min equilibration
[3] = test system: G4 (DNA, G4) AGGGTTAGGGTTAGGGTTAGGG; assay: thiazole orange displacement (G4-FID), kinetics; conditions: 10 mM K+, 90 mM Li+; 10 mM lithium cacodylate pH 7.2; 1 µM TO displaced, 0.25 µM DNA; resveratrol concentration not stated

For `O=c1cc(-c2ccccc2)oc2cc(O)cc(O)c12`, the TO shift ([1]; highest concentrations) was less than 20% and the TO shift ([2]; highest concentrations) was less than 20%.
`O=c1c(O)c(-c2ccc(O)c(O)c2)oc2cc(O)cc(O)c12` was tested, and the binding ([1]; positive control) was “yes” and the binding ([2]; positive control) was “yes”.
With `Oc1ccc(/C=C/c2cc(O)cc(O)c2)cc1` the binding [3] was “no”.
